The record followed here is patent US12157738B2, “Macrocyclic inhibitors of ALK, TRKA, TRKB, and ROS1” (DANA-FARBER CANCER INSTITUTE, INC., priority 2018, dated 2024).

The target of one assay is T1, ALK L1196M (Homo sapiens, UniProt Q9UM73, L1196M).
T1 construct: purchased Invitrogen
The experiment in a line: Invitrogen Z'-lyte or LanthaScreen kinase IC50 assay. The class given is biochemical. An excerpt: (§1) The IC50 values were generated from Invitrogen™'s Z'-lytet™ or LanthaScreen™ assays.

A further assay deals with T2, ROS1 (Homo sapiens, UniProt P08922).
T2 construct: purchased Invitrogen
T2 sequence (P08922 28-2347): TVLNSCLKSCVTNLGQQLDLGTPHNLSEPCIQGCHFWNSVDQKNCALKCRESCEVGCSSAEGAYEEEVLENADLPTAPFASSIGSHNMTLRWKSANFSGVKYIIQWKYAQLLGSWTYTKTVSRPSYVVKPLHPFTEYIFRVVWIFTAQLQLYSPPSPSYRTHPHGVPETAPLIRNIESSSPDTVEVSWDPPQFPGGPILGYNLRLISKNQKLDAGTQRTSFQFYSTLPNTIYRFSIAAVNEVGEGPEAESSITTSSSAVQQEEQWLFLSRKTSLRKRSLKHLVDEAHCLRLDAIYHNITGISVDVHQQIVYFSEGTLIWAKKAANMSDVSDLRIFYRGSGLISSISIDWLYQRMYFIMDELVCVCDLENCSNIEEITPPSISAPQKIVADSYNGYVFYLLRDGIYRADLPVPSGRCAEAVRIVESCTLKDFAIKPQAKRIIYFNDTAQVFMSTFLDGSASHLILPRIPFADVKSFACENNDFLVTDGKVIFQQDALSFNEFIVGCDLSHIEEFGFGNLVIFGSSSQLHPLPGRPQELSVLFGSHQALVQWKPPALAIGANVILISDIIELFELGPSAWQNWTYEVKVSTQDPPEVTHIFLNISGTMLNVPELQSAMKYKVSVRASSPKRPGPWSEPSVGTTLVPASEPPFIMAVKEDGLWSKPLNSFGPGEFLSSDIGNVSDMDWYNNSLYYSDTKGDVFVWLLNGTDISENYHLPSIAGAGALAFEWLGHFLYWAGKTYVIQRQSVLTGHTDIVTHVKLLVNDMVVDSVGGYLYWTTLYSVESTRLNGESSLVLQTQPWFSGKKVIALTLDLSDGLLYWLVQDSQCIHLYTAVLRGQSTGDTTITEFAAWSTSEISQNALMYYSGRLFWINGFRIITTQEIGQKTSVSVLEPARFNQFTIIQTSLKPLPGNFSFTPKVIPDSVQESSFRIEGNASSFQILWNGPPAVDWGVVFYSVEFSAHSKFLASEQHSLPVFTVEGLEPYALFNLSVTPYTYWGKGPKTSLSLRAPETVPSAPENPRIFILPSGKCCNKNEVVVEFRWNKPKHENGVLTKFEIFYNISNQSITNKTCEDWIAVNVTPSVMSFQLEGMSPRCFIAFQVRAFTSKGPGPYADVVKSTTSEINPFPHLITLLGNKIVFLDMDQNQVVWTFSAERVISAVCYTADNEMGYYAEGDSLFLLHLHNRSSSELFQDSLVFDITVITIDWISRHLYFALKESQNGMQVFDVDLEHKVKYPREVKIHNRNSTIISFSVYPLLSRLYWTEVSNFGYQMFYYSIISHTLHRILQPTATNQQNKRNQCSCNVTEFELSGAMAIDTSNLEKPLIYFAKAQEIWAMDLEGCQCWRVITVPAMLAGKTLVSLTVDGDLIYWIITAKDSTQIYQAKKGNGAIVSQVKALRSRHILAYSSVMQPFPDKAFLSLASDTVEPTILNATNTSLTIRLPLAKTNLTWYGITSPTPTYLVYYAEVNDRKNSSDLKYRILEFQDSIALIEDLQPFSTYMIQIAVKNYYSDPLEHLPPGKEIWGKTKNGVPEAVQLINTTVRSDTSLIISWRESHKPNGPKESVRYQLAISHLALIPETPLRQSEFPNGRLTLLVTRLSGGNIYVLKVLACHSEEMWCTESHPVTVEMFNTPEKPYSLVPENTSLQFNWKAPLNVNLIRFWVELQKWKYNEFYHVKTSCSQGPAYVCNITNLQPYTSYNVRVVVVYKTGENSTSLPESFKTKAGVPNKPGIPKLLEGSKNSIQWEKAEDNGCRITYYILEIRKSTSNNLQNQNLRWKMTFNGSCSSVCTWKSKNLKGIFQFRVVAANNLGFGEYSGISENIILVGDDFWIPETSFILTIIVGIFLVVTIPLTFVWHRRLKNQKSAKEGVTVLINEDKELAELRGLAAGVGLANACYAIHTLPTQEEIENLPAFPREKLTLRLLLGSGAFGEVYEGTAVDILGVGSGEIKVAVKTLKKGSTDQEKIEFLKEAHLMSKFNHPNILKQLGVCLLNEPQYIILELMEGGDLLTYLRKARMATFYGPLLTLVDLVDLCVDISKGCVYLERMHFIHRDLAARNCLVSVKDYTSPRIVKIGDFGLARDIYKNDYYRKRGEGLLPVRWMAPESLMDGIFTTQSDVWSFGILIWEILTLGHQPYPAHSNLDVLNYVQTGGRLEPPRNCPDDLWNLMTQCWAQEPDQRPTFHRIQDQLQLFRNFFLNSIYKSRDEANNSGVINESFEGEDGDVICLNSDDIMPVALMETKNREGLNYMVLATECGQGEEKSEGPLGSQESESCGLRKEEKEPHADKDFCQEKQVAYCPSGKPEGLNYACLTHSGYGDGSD
Described as above. It is filed as biochemical.
Text: as §1

A further assay deals with T3, TRK2 (Homo sapiens, UniProt Q16620).
T3 construct: purchased Invitrogen
T3 sequence (Q16620 32-822): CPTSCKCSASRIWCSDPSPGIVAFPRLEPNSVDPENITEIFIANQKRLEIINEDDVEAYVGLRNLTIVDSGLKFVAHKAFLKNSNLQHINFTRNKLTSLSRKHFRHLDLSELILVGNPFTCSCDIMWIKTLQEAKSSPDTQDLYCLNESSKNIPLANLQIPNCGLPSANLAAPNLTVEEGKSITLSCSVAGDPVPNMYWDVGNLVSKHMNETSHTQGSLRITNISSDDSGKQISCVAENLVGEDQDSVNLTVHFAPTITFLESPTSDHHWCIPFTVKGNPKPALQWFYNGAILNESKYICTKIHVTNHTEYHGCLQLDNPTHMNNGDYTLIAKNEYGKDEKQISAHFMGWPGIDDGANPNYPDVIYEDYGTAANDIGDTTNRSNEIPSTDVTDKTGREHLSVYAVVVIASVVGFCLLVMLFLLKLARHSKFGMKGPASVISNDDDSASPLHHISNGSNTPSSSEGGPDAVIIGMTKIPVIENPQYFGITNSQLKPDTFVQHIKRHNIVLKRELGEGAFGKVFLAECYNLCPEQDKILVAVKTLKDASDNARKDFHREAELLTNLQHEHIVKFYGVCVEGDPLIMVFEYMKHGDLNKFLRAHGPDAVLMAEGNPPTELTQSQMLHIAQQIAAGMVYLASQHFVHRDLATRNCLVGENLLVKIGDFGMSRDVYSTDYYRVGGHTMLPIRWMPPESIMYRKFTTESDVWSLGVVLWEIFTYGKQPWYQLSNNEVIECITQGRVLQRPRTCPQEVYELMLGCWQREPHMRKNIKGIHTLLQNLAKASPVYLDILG
The assay is described as above. It is filed as biochemical.
Text: as §1

Another assay concerns the target T4, TRK1 (Homo sapiens, UniProt P04629).
T4 construct: purchased Invitrogen
Described as above. It is filed as biochemical.
Text: as §1

Another assay concerns the target T5, ALK (Homo sapiens, UniProt Q9UM73).
T5 construct: similar enzymatic potency was observed against full length ALK and ALK mutants; purchased Invitrogen
Described as above. The class given is biochemical.
Text: as §1

The target of the next assay is T6, TRK3 (Homo sapiens, UniProt Q16288).
T6 construct: purchased Invitrogen
T6 sequence (Q16288 32-839): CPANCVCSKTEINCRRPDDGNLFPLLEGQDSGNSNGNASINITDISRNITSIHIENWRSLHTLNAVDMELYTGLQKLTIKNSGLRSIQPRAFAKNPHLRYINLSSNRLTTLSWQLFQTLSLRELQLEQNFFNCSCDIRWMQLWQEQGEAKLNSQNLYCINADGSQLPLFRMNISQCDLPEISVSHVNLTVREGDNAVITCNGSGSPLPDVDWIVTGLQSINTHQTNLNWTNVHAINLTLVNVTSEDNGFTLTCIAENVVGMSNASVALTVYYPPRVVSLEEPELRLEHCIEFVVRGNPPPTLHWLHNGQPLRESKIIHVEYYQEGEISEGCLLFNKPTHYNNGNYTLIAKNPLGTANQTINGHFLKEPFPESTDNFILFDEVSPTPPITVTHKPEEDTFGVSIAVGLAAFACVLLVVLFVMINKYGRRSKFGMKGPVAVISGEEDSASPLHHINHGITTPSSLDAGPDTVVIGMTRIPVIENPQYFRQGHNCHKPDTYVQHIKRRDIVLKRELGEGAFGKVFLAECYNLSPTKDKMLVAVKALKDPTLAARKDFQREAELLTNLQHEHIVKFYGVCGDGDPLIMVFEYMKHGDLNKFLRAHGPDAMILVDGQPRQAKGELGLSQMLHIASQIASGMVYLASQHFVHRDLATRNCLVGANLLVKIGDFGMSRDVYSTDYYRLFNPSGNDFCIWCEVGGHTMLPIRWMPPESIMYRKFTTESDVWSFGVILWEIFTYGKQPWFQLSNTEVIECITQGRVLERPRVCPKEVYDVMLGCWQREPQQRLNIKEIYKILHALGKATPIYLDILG
Described as above. The class given is biochemical.
Text: as §1

Assay [1] has as its system ALK wild type, ALK mutants, TRKA, TRKB, TRKC and ROS1. The experiment in a line: AMBIT profile, DiscoverX KINOMEscan Assay platform. The class given is binding. Particulars: for Ambit profile potency and selectivity: Example 10, FIG. 7A and 7B. An excerpt:
The AMBIT data were generated using DiscoverX KINOMEscan® Assay platform.
The experimental protocol was as in Example 9.

A further assay addresses T7, CD74-NTRK1 Ba/F3 cells (Homo sapiens, UniProt P04629).
T7 construct: expressed in transfected cells; host or cells: Ba/F3; the other entry of the earlier key: CD74 (P04233, HLA class II histocompatibility antigen gamma chain)
Description: Cell viability assay (CellTiter-Glo, 72 hr). Particulars: for IC50: 72 hr. The class given is cell-based. As to the method:
(§2) Parental Ba/F3 cells were cultured with an additional 1 ng/mL recombinant mouse IL-3 (ProSpec). […] Cell viability was evaluated using the CellTiter-Glo® Luminescent Cell Viability Assay (Promega) following the manufacturer's standards. […] Anti-proliferative best fit IC50 values were calculated by Graphpad Prism 7 software.

The next assay concerns Parental WT Ba/F3 cells. The experiment in a line: Cell viability assay (CellTiter-Glo, 72 hr). It is filed as cell-based. Particulars: for IC50: Mus musculus, BaF3, 72 hr. As to the method:
(§3) Ba/F3 cell lines were cultured in RPMI-1640 media containing L-glutamine, supplemented with 10% fetal bovine serum (FBS) and 1% penicillin/streptomycin. Parental Ba/F3 cells were cultured with an additional 1 ng/mL recombinant mouse IL-3 (ProSpec). Mycoplasma testing was performed on a monthly basis and all lines were negative. Cell viability was evaluated using the CellTiter-Glo® Luminescent Cell Viability Assay (Promega) following the manufacturer's standards. 12-point dose titrations were tested in triplicate from 10000 nM to 0.056 nM over 72 hr. Anti-proliferative best fit IC50 values were calculated by Graphpad Prism 7 software.
The experimental protocol was as in Example 11.

For assay [2], the system named is Ba/F3 cell lines expressing EML4-ALK and EML4-ALK with secondary mutations. The experiment in a line: Anti-proliferation assay in EML4-ALK Ba/F3 cell lines. The class given is cell-based. Here is the method: as §3
The subject of assay [3] is tel-TRK fusion Ba/F3 cell lines. The experiment in a line: IC50 in TEL-TRK Ba/F3 cells. It is filed as cell-based. Particulars: all 3 tel-TRK fusion Ba/F3 cell lines; FIG. 5. An excerpt: The IC50 values were generated using ACD/Labs GraphPad Prism (version 7).
Assay [4] has as its target T8, Ba/F3 EML4-ALK G1202R cells (Homo sapiens, UniProt Q9UM73, G1202R).
T8 construct: expressed in transfected cells; host or cells: Ba/F3; the other entry of the earlier key: EML4 (Q9HC35, Echinoderm microtubule-associated protein-like 4)
Description: Cell viability assay (CellTiter-Glo, 72 hr). The class given is cell-based. Here is the method:
as §2

Assay [5] has as its target T9, Ba/F3 EML4-ALK L1196M cells (Homo sapiens, UniProt Q9UM73, L1196M).
T9 construct: expressed in transfected cells; host or cells: Ba/F3; the other entry of the earlier key: EML4 (Q9HC35, Echinoderm microtubule-associated protein-like 4)
Description: Cell viability assay (CellTiter-Glo, 72 hr). The class given is cell-based. Here is the method:
as §2

Assay [6] concerns the target T10, Ba/F3 EML4-ALK C1156Y cells (Homo sapiens, UniProt Q9UM73, C1156Y).
T10 construct: expressed in transfected cells; host or cells: Ba/F3; the other entry of the earlier key: EML4 (Q9HC35, Echinoderm microtubule-associated protein-like 4)
Description: Cell viability assay (CellTiter-Glo, 72 hr). The class given is cell-based. Here is the method: as §2

A further assay addresses T11, Ba/F3 EML4-ALK cells (Homo sapiens, UniProt Q9UM73).
T11 construct: expressed in transfected cells; host or cells: Ba/F3; the other entry of the earlier key: EML4 (Q9HC35, Echinoderm microtubule-associated protein-like 4)
Description: Cell viability assay (CellTiter-Glo, 72 hr). It is filed as cell-based. As to the method: as §2

T7 sequence (P04629 510-796 limits assumed): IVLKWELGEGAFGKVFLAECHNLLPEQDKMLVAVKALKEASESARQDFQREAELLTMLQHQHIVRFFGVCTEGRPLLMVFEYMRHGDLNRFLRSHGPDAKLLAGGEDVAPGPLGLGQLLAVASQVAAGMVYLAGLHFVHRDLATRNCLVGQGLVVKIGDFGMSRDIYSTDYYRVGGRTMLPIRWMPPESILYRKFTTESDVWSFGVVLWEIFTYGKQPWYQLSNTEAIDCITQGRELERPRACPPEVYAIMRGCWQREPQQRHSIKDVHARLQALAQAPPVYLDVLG
T4 sequence (P04629 33-796): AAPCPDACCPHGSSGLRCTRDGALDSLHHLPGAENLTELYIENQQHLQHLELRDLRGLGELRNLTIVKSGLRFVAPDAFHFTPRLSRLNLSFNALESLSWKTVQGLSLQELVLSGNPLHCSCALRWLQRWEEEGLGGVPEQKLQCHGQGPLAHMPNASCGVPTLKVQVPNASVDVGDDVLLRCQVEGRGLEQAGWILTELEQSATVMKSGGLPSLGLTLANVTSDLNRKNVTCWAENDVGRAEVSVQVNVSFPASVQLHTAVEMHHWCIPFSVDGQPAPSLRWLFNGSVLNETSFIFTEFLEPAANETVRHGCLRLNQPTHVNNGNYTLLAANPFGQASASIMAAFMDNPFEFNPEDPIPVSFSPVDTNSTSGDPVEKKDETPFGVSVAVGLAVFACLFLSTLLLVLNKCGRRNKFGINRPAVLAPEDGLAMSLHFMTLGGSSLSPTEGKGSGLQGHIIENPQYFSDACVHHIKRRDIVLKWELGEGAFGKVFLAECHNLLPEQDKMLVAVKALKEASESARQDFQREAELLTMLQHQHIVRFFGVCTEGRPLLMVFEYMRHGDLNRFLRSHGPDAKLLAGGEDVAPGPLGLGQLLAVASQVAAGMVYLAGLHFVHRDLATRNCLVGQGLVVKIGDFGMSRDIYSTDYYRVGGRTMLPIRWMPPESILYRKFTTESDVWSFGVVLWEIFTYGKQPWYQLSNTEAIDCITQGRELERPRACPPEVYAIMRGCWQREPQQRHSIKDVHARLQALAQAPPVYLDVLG

As for `Cc1c2c(nn1C)CN(C)C(=O)c1ccc(F)cc1[C@H]1CCCN1c1cc-2cnc1N` [Compound I-1c, (R)-2^6-amino-4^5-fluoro-1^1,1^5,6-trimethyl-1^1H-6-aza-2(3,5)-pyridina-1(4,3)-pyrazola-3(1,2)-pyrrolidina-4(1,3)-benzenacycloheptaphan-5-one], the IC50 on ALK L1196M is 3 nM; against ROS1 it was 0.6 nM; on TRK2, less than 0.5 nM; at TRK1, 1 nM; on ALK, 5 nM; at TRK3, 0.5 nM. The “Ambit profile potency and selectivity” value in assay [1] was “very potent and selective for ALK, TRKA, TRKB, and TRKC”.
As for `CN1Cc2nn(C)c(C#N)c2-c2cnc(N)c(c2)N2CCC[C@@H]2c2cc(F)ccc2C1=O` [Compound I-1d, (R)-2^6-amino-4^5-fluoro-1,6-dimethyl-5-oxo-1^1H-6-aza-2(3,5)-pyridina-1(4,3)-pyrazola-3(1,2)-pyrrolidina-4(1,3)-benzenacycloheptaphane-15-carbonitrile], the IC50 at ALK L1196M turned out to be 3 nM; on ROS1 it was 1 nM; at TRK2, 5 nM; against TRK1, 6 nM; against ALK it was 7 nM; against TRK3, 2 nM. The “Ambit profile potency and selectivity” value in assay [1] is “very potent and selective for ALK, TRKA, TRKB, and TRKC”.
On to `C[C@H]1Oc2cc(cnc2N)-c2c(nn(C)c2C#N)CN(C)C(=O)c2ccc(F)cc21` [Lorlatinib, reference compound], for which the IC50 amounted to 66.9 nM against CD74-NTRK1 Ba/F3 cells and 18900 nM in the assay with Parental WT Ba/F3 cells.
As for `CN1CCN(c2ccc(C(=O)Nc3n[nH]c4ccc(Cc5cc(F)cc(F)c5)cc34)c(NC3CCOCC3)c2)CC1` [Entrectinib], in the assay on Parental WT Ba/F3 cells, the IC50 was 2020 nM and the “non-specific activity in parental Ba/F3 cells, compared in words” value is given as “more active than compound I-1a”.
For the compound `COc1c2c(nn1C)CN(C)C(=O)c1ccc(F)cc1[C@H]1CCCN1c1cc-2cnc1N` [Compound I-1b, (R)-26-amino-45-fluoro-15-methoxy-11,6-dimethyl-11H-6-aza-2(3,5)-pyridina-1(4,3)-pyrazola-3(1,2)-pyrrolidina-4(1,3)-benzenacycloheptaphan-5-one], the IC50 against ALK L1196M came out at 20 nM; against ROS1, 0.9 nM; at TRK2, 0.9 nM; against TRK1 it was 4 nM; against ALK, 9 nM; against TRK3, 0.7 nM. Further, in assay [1], the “Ambit profile potency and selectivity” value is “very potent and selective for ALK, TRKA, TRKB, and TRKC”.
As to `Cn1cc2c(n1)CN(C1CC1)C(=O)c1ccc(F)cc1[C@H]1CCCN1c1cc-2cnc1N` [Compound I-1e, (R)-2^6-amino-6-cyclopropyl-4^5-fluoro-1^1-methyl-1^1H-6-aza-2(3,5)-pyridina-1(4,3)-pyrazola-3(1,2)-pyrrolidina-4(1,3)-benzenacycloheptaphan-5-one], the 50% inhibitory concentration (IC50) amounted to 6 nM at ALK L1196M; 0.7 nM at ROS1; 0.7 nM on TRK2; 2 nM at TRK1; 6 nM against ALK; 0.7 nM at TRK3.
For `CN1Cc2nn(C)cc2-c2cnc(N)c(c2)N2CCC[C@@H]2c2cc(F)ccc2C1=O` [Compound I-1a, (R)-26-amino-45-fluoro-11,6-dimethyl-11H-6-aza-2(3,5)-pyridina-1(4,3)-pyrazola-3(1,2)-pyrrolidina-4(1,3)-benzenacycloheptaphan-5-one], the “anti-proliferative activity relative to lorlatinib” value in assay [2] (Example 11, FIG. 1) was “lower activity”. For the same compound, the “activity relative to lorlatinib and JH-XIII-157-2” value in assay [2] (Example 12, FIG. 2A-2D, Tables 2-5) was “lower activity”. Also, the IC50 against ALK L1196M came out at 6 nM; against ROS1, 1.3 nM; at TRK2 it was 0.5 nM; against TRK1, 3 nM; at ALK, 12 nM; against TRK3 it was 0.7 nM. The IC50 against CD74-NTRK1 Ba/F3 cells turned out to be 0.13 nM; in [4], 1220 nM; in assay [5], 144 nM; in [6], 151 nM; against Ba/F3 EML4-ALK cells, 23.4 nM; with Parental WT Ba/F3 cells, 19000 nM. In addition, in assay [3], the “potency (IC50) relative to entrectinib in tel-TRK fusion Ba/F3 cell lines” value is on record as “more potent than entrectinib”. In addition, on CD74-NTRK1 Ba/F3 cells (in words), the “activity relative to entrectinib in CD74-NTRK1 expressing Ba/F3 cells” value was “entrectinib like activity”. Moreover, in the assay with Parental WT Ba/F3 cells, the “non-specific activity in parental Ba/F3 cells, compared in words” value is “less non-specific activity than entrectinib”. For the same compound, in assay [1] (Example 9, FIG. 6), the “Ambit profile selectivity (percent activity remaining)” value was “quite selective toward ALK wild type, ALK mutants as well as TRKA, TRKB, TRKC and ROS1”. For the same compound, in assay [1], the “Ambit profile potency and selectivity” value is “very potent and selective for ALK, TRKA, TRKB, and TRKC”.
